Data reported in publication PMC6106931 (Alzheimer's Research & Therapy, 2018).

Assay: Clinical safety, Study ALZ1005
Assay type: in vivo, human
[1] = MCI due to AD, JNJ-54861911 total, N=20
[2] = both atabecestat groups, 3 of 31 patients
[3] = preclinical AD, JNJ-54861911 total, N=11

Experimental: Safety and tolerability were assessed during the study by recording adverse events (AEs), clinically significant abnormalities, clinical laboratory tests, ECG, and vital signs and by performing physical, neurological, and MRI examinations. All enrolled participants were included in the safety analysis population.

With `C[C@@]1(c2cc(NC(=O)c3ccc(C#N)cn3)ccc2F)C=CSC(N)=N1` [atabecestat] the “TEAE: Psoriasis” value [1] was “^0 n (%)”, the “TEAE: Psychiatric disorders” value [1] was “^2 (10.0) n (%)” and the “TEAE: Renal and urinary disorders” value [1] was “^1 (5.0) n (%)”. For the same compound, the “TEAE: Renal colic” value [1] was “^1 (5.0) n (%)”, the “TEAE: Reproductive system and breast disorders” value [1] was “^1 (5.0) n (%)” and the “TEAE: Skin and subcutaneous tissue disorders” value [1] was “^2 (10.0) n (%)”. For the same compound, the “TEAE: Somnolence” value [1] was “^0 n (%)”, the “TEAE: Syncope” value [1] was “^0 n (%)” and the “TEAE: Urticaria” value [1] was “^0 n (%)”. The “TEAE: Vascular disorders” value [1] was “^0 n (%)”, the “TEAE: Vulvovaginal candidiasis” value [1] was “^1 (5.0) n (%)” and the “TEAE: Vulvovaginal pruritus” value [1] was “^1 (5.0) n (%)”. The TEAE accidental overdose (both atabecestat groups, 2 patients) was 6.5%, the TEAE psychiatric disorders [2] was 9.7% and the “TEAE skin and subcutaneous tissue disorders” value [2] was 9.7%. The “TEAE post-lumbar puncture syndrome” value (both atabecestat groups, 4 patients) was 12.9%, the “TEAE SOC injury, poisoning, and procedural complications” value (both atabecestat groups, 5 of 31 patients) was 16.1% and the “changes from baseline in clinical laboratory analytes, liver function tests, vital signs, neurologic and physical examinations” value (both studies) was “no clinically significant trends”. For the same compound, the “deaths or TEAEs leading to discontinuation” value (both studies) was “no deaths or TEAEs leading to discontinuation”, the “ECG parameters, mean and median changes over time from predose” value (early AD population) was “no treatment- or dose-related changes” and the “Subjects with any TEAE” value (preclinical AD, 10 mg, N=5) was “^1 (20.0%) n (%)”. The “TEAE: Accidental overdose” value (preclinical AD, 10 mg, N=5) was “^0 n (%)”, the “TEAE: Anxiety” value (preclinical AD, 10 mg, N=5) was “^0 n (%)” and the “TEAE: Bladder cancer” value (preclinical AD, 10 mg, N=5) was “^0 n (%)”. For the same compound, the “TEAE: Conjunctivitis” value (preclinical AD, 10 mg, N=5) was “^0 n (%)”, the “TEAE: Dementia Alzheimer’s type” value (preclinical AD, 10 mg, N=5) was “^0 n (%)” and the “TEAE: Depressed mood” value (preclinical AD, 10 mg, N=5) was “^0 n (%)”. The “TEAE: Dermatitis allergic” value (preclinical AD, 10 mg, N=5) was “^0 n (%)”, the “TEAE: Dizziness” value (preclinical AD, 10 mg, N=5) was “^0 n (%)” and the “TEAE: Eczema vesicular” value (preclinical AD, 10 mg, N=5) was “^0 n (%)”. The “TEAE: Fatigue” value (preclinical AD, 10 mg, N=5) was “^0 n (%)”, the “TEAE: Gastrointestinal disorders” value (preclinical AD, 10 mg, N=5) was “^0 n (%)” and the “TEAE: General disorders and administration site conditions” value (preclinical AD, 10 mg, N=5) was “^0 n (%)”. For the same compound, the “TEAE: Headache” value (preclinical AD, 10 mg, N=5) was “^0 n (%)”, the “TEAE: Hypertension” value (preclinical AD, 10 mg, N=5) was “^1 (20.^0) n (%)” and the “TEAE: Infections and infestations” value (preclinical AD, 10 mg, N=5) was “^0 n (%)”. The “TEAE: Injury, poisoning and procedural complications” value (shortened to “TEAE: Injury”) (preclinical AD, 10 mg, N=5) was “^0 n (%)”, the “TEAE: Insomnia” value (preclinical AD, 10 mg, N=5) was “^0 n (%)” and the “TEAE: Irritability” value (preclinical AD, 10 mg, N=5) was “^0 n (%)”. For the same compound, the “TEAE: Musculoskeletal and connective tissue disorders” value (preclinical AD, 10 mg, N=5) was “^0 n (%)”, the “TEAE: Nasopharyngitis” value (preclinical AD, 10 mg, N=5) was “^0 n (%)” and the “TEAE: Nausea” value (preclinical AD, 10 mg, N=5) was “^0 n (%)”. For the same compound, the “TEAE: Neck pain” value (preclinical AD, 10 mg, N=5) was “^0 n (%)”, the “TEAE: Neoplasms benign, malignant and unspecified” value (preclinical AD, 10 mg, N=5) was “^0 n (%)” and the “TEAE: Nervous system disorders” value (preclinical AD, 10 mg, N=5) was “^0 n (%)”. For the same compound, the “TEAE: Post lumbar puncture syndrome” value (preclinical AD, 10 mg, N=5) was “^0 n (%)”, the “TEAE: Psoriasis” value (preclinical AD, 10 mg, N=5) was “^0 n (%)” and the “TEAE: Psychiatric disorders” value (preclinical AD, 10 mg, N=5) was “^0 n (%)”. The “TEAE: Renal and urinary disorders” value (preclinical AD, 10 mg, N=5) was “^0 n (%)”, the “TEAE: Renal colic” value (preclinical AD, 10 mg, N=5) was “^0 n (%)” and the “TEAE: Reproductive system and breast disorders” value (preclinical AD, 10 mg, N=5) was “^0 n (%)”. For the same compound, the “TEAE: Skin and subcutaneous tissue disorders” value (preclinical AD, 10 mg, N=5) was “^0 n (%)”, the “TEAE: Somnolence” value (preclinical AD, 10 mg, N=5) was “^0 n (%)” and the “TEAE: Syncope” value (preclinical AD, 10 mg, N=5) was “^0 n (%)”. For the same compound, the “TEAE: Urticaria” value (preclinical AD, 10 mg, N=5) was “^0 n (%)”, the “TEAE: Vascular disorders” value (preclinical AD, 10 mg, N=5) was “^1 (20.0) n (%)” and the “TEAE: Vulvovaginal candidiasis” value (preclinical AD, 10 mg, N=5) was “^0 n (%)”. The “TEAE: Vulvovaginal pruritus” value (preclinical AD, 10 mg, N=5) was “^0 n (%)”, the “Subjects with any TEAE” value (preclinical AD, 50 mg, N=6) was “^2 (33.3) n (%)” and the “TEAE: Accidental overdose” value (preclinical AD, 50 mg, N=6) was “^0 n (%)”. For the same compound, the “TEAE: Anxiety” value (preclinical AD, 50 mg, N=6) was “^0 n (%)”, the “TEAE: Bladder cancer” value (preclinical AD, 50 mg, N=6) was “^0 n (%)” and the “TEAE: Conjunctivitis” value (preclinical AD, 50 mg, N=6) was “^0 n (%)”. For the same compound, the “TEAE: Dementia Alzheimer’s type” value (preclinical AD, 50 mg, N=6) was “^0 n (%)”, the “TEAE: Depressed mood” value (preclinical AD, 50 mg, N=6) was “^0 n (%)” and the “TEAE: Dermatitis allergic” value (preclinical AD, 50 mg, N=6) was “^0 n (%)”. The “TEAE: Dizziness” value (preclinical AD, 50 mg, N=6) was “^0 n (%)”, the “TEAE: Eczema vesicular” value (preclinical AD, 50 mg, N=6) was “^0 n (%)” and the “TEAE: Fatigue” value (preclinical AD, 50 mg, N=6) was “^1 (16.7^) n (%)”. The “TEAE: Gastrointestinal disorders” value (preclinical AD, 50 mg, N=6) was “^0 n (%)”, the “TEAE: General disorders and administration site conditions” value (preclinical AD, 50 mg, N=6) was “^1 (16.7) n (%)” and the “TEAE: Headache” value (preclinical AD, 50 mg, N=6) was “^0 n (%)”. For the same compound, the “TEAE: Hypertension” value (preclinical AD, 50 mg, N=6) was “^0 n (%)”, the “TEAE: Infections and infestations” value (preclinical AD, 50 mg, N=6) was “^0 n (%)” and the “TEAE: Injury” value (preclinical AD, 50 mg, N=6) was “^1 (16.7) n (%)”. The “TEAE: Insomnia” value (preclinical AD, 50 mg, N=6) was “^1 (16.^7) n (%)”, the “TEAE: Irritability” value (preclinical AD, 50 mg, N=6) was “^0 n (%)” and the “TEAE: Musculoskeletal and connective tissue disorders” value (preclinical AD, 50 mg, N=6) was “^0 n (%)”. The “TEAE: Nasopharyngitis” value (preclinical AD, 50 mg, N=6) was “^0 n (%)”, the “TEAE: Nausea” value (preclinical AD, 50 mg, N=6) was “^0 n (%)” and the “TEAE: Neck pain” value (preclinical AD, 50 mg, N=6) was “^0 n (%)”. For the same compound, the “TEAE: Neoplasms benign, malignant and unspecified” value (preclinical AD, 50 mg, N=6) was “^0 n (%)”, the “TEAE: Nervous system disorders” value (preclinical AD, 50 mg, N=6) was “^0 n (%)” and the “TEAE: Post lumbar puncture syndrome” value (preclinical AD, 50 mg, N=6) was “^1 (16.7^) n (%)”. For the same compound, the “TEAE: Psoriasis” value (preclinical AD, 50 mg, N=6) was “^1 (16.^7) n (%)”, the “TEAE: Psychiatric disorders” value (preclinical AD, 50 mg, N=6) was “^1 (16.^7) n (%)” and the “TEAE: Renal and urinary disorders” value (preclinical AD, 50 mg, N=6) was “^0 n (%)”. The “TEAE: Renal colic” value (preclinical AD, 50 mg, N=6) was “^0 n (%)”, the “TEAE: Reproductive system and breast disorders” value (preclinical AD, 50 mg, N=6) was “^0 n (%)” and the “TEAE: Skin and subcutaneous tissue disorders” value (preclinical AD, 50 mg, N=6) was “^1 (16.^7) n (%)”. For the same compound, the “TEAE: Somnolence” value (preclinical AD, 50 mg, N=6) was “^0 n (%)”, the “TEAE: Syncope” value (preclinical AD, 50 mg, N=6) was “^0 n (%)” and the “TEAE: Urticaria” value (preclinical AD, 50 mg, N=6) was “^1 (16.^7) n (%)”. For the same compound, the “TEAE: Vascular disorders” value (preclinical AD, 50 mg, N=6) was “^0 n (%)”, the “TEAE: Vulvovaginal candidiasis” value (preclinical AD, 50 mg, N=6) was “^0 n (%)” and the “TEAE: Vulvovaginal pruritus” value (preclinical AD, 50 mg, N=6) was “^0 n (%)”. For the same compound, the “Subjects with any TEAE” value [3] was “^3 (27.3) n (%)”, the “TEAE: Fatigue” value [3] was “^1 (9.1) n (%)” and the “TEAE: General disorders and administration site conditions” value [3] was “^1 (9.1) n (%)”. The “TEAE: Hypertension” value [3] was “^1 (9.1) n (%)”, the “TEAE: Injury” value [3] was “^1 (9.1) n (%)” and the “TEAE: Insomnia” value [3] was “^1 (9.1) n (%)”. For the same compound, the “TEAE: Nervous system disorders” value [3] was “^0 n (%)”, the “TEAE: Post lumbar puncture syndrome” value [3] was “^1 (9.1) n (%)” and the “TEAE: Psoriasis” value [3] was “^1 (9.1) n (%)”. For the same compound, the “TEAE: Psychiatric disorders” value [3] was “^1 (9.1) n (%)”, the “TEAE: Skin and subcutaneous tissue disorders” value [3] was “^1 (9.1) n (%)” and the “TEAE: Somnolence” value [3] was “^0 n (%)”. The “TEAE: Urticaria” value [3] was “^1 (9.1) n (%)” and the “TEAE: Vascular disorders” value [3] was “^1 (9.1) n (%)”.
